Measurements published in EP0598515A1, “Method for herbicidal activity-enhancing, activity-enhanced herbicidal composition and activity-enhancing composition” (ISHIHARA SANGYO KAISHA LTD., priority 1992, dated 1994).
Values joined by “and” are separate entries in the source; they are usually repeats but may differ in a detail not shown here. Identical values can stand only once. Like-named read-outs stand apart in the source and are kept apart here.

Columns and labels:
Assay type in all cases: in vivo
[1] = tested on: johnsongrass (Sorghum halepense L.); assay: Test Example 10: pot test on rhizome plants, Example 8 suspension concentrate with Frigate; settings: duplicate; for inhibition at 10 g/ha / inhibition at 20 g/ha / inhibition at 30 g/ha / inhibition at 40 g/ha: Sorghum halepense; for inhibition at 10 g/ha: Compound A 10 g/ha
Protocol: Rhizomes of johnsongrass (Sorghum halepense L.) induced to germinate were transplanted in 1/150,000-hectare pots filled with upland soil and arranged in a duplicate system. When the johnsongrass plants grew to a 3- to 6-leaf stage, the oil-based suspension concentrate obtained in Example 8 was diluted with 200 liters/hectare of water containing a predetermined amount of Frigate and was applied foliarly to the plants with a small spray gun.
Seventeen days and fifty six days after treatment (D.A.T.) the growth inhibition of plants was evaluated with visual observation in the same manner as in Test Example 1 and are shown in Table 10.

total evaluation [2] = assay: Test Example 13: field plot test, total evaluation of growth inhibition; settings: Example 8 suspension concentrate, 27 days after treatment, field plots; for inhibition at 40 g/ha: Compound A 40 g/ha
Text: (§1) In field plots of 4 m² (1 m × 4 m) unit arranged in a duplicate system, seeds of corn, crabgrass (Digitaria sanguinalis L.) common lambsquarters (Chenopodium album L.), slender amaranth (Amaranthus viridis L.), velvetleaf (Abutilon theophrasti MEDIC.) and common cocklebur (Xanthium strumarium L.) were sown and grown. Also, green foxtail (Setaria viridis L.) and barnyardgrass (Echinochloa crus-galli L.) were allowed to grow spontaneously. When the plants grew to certain stages (corn: 4.2 to 6.0-leaf stage, crabgrass: 3.2 to 5.0-leaf stage, common lambsquarters: 3.0 to 6.0-leaf stage, slender amaranth: 2.0 to 5.0-leaf stage, velvetleaf: 1.5 to 4.0-leaf stage, common cocklebur: cotyledonal to 3.5-leaf stage, green foxtail: 3.0 to 5.0-leaf stage and barnyardgrass: 3.0 to 5.0-leaf stage), the oil-based suspension concentrate obtained in Example 8 was diluted with 200 liters/hectare of water containing a predetermined amount of Frigate and was applied foliarly to the plants with a small spray gun.
Twenty seven days after treatment, the growth inhibition of plants except for corn plants was evaluated with visual observation in the same manner as in Test Example 1 and are shown in Table 13.

[3] = tested on: Crabgrass (Digitaria sanginalis L.); assay: Test Example 11: pot test, Example 8 suspension concentrate with kinds of EFAS; settings: EFAS: No addition, 23 days after treatment, duplicate
Protocol: Crabgrass (Digitaria sanginalis L.) seeds were sown in 1/1,000,000-hectare pots filled with upland soil and arranged in a duplicate system. When the crabgrass plants grew to a 4-leaf stage, the oil-based suspension concentrate obtained in Example 8 was diluted with 200 liters/hectare of water containing a predetermined amount of an ethoxylated fatty amine type surfactant (EFAS) and was applied foliarly to the plants with a small spray gun.
Twenty three days after treatment, the growth inhibition of plants was evaluated with visual observation in the same manner as in Test Example 1 and are shown in Table 11.

corn plants = assay: Test Example 13: field plot test, injury on corn; settings: Example 8 suspension concentrate, 4 days after treatment, 0 for no injury to 5 for severe injure
Text: as §1
On the other hand, 4 days after treatment, corn plants were examined for condition of injury (degree of discoloration and yellowing) with visual observation and the results are also shown in Table 13 (0 for no injury to 5 for severe injure).

total evaluation [4] = assay: Test Example 12: field plot test, total evaluation of growth inhibition; settings: 648 h, Example 8 suspension concentrate, 27 days after treatment, field plots, read-out: Growth Inhibition (%) TE; for inhibition at 40 g/ha: Compound A 40 g/ha; for inhibition at 60 g/ha: Compound A 60 g/ha
Text: In field plots of 3 m² (1 m × 3 m) unit arranged in a duplicate system, seeds of corn, crabgrass (Digitaria sanguinalis L.), green foxtail (Setaria viridis L.), common lambsquarters (Chenopodium album L.), slender amaranth (Amaranthus virdis L.) and velvetleaf (Abutilon theophrasti MEDIC.) were sown and grown. Also, barnyardgrass (Echinochloa crus-galli L.), henbit (Lamiun amplexlcaule L.), pale smartweed (Polygonum lapathifolium L.) and threeseeded copperleaf (Acalypha australis L.) were allowed to grow spontaneously. When the plants grew to certain stages (corn: 6.1 to 6.5-leaf stage, crabgrass: 2.0 to 4.5-leaf stage, green foxtail: 3.0 to 4.5-leaf stage, common lambsquarters: 4.0 to 8.0-leaf stage, slender amaranth: 1.0 to 4.0-leaf stage, velvetleaf: 2.0 to 3.5-leaf stage, barnyardgrass: 3.0 to 4.5-leaf stage, henbit: 2.0 to 5.0 cm, pale smartweed: 3.0 to 5.0-leaf stage and threeseeded copperleaf: 2.0 to 4.0-leaf stage), the oil-based suspension concentrate obtained in Example 8 was diluted with 200 liters/hectare of water containing a predetermined amount of Frigate and was applied foliarly to the plants with a small spray gun.
Twenty seven days after treatment, the growth inhibition of plants except for corn plants was evaluated with visual observation in the same manner as in Test Example 1 and are shown in Table 12.

[5] = Frigate: No addition, Compound A 30 g/ha
[6] = Frigate 0.2 % by volume, Compound A 20 g/ha
[7] = Frigate 0.2 % by volume, Compound A 30 g/ha

## COc1cc(OC)nc(NC(=O)NS(=O)(=O)c2ncccc2C(=O)N(C)C)n1 [Compound A, N-[(4,6-dimethoxypyrimidin-2-yl)aminocarbonyl]-3-dimethylaminocarbonyl-2-pyridinesulfonamide]
[1]; Frigate 0.1 % by volume, Compound A 30 g/ha, 17 days after treatment
  Growth Inhibition (%) of Johnsongrass 17 D.A.T.: 80%
[1]; Frigate 0.2 % by volume, Compound A 20 g/ha, 17 days after treatment
  Growth Inhibition (%) of Johnsongrass 17 D.A.T.: 80%
[1]; Frigate 0.2 % by volume, Compound A 30 g/ha, 17 days after treatment
  Growth Inhibition (%) of Johnsongrass 17 D.A.T.: 80%
[1]; Frigate 0.2 % by volume, Compound A 30 g/ha, 56 days after treatment
  Growth Inhibition (%) of Johnsongrass 56 D.A.T.: 98%
[1]; Frigate: No addition, Compound A 40 g/ha, 56 days after treatment
  Growth Inhibition (%) of Johnsongrass 56 D.A.T.: 98%
[1]; 408 h, Frigate 0.1 % by volume, 17 days after treatment, read-out: Growth Inhibition (%) of Johnsongrass 17 D.A.T.
  inhibition at 10 g/ha: 65%
[1]; 408 h, Frigate 0.1 % by volume, Compound A 20 g/ha, 17 days after treatment, read-out: Growth Inhibition (%) of Johnsongrass 17 D.A.T.
  inhibition at 20 g/ha: 75%
[1]; 408 h, Frigate 0.1 % by volume, Compound A 30 g/ha, 17 days after treatment, read-out: Growth Inhibition (%) of Johnsongrass 17 D.A.T.
  inhibition at 30 g/ha: 75%
[1]; 408 h, Frigate 0.2 % by volume, 17 days after treatment, read-out: Growth Inhibition (%) of Johnsongrass 17 D.A.T.
  inhibition at 10 g/ha: 70%
[1]; 408 h, Frigate 0.2 % by volume, Compound A 20 g/ha, 17 days after treatment, read-out: Growth Inhibition (%) of Johnsongrass 17 D.A.T.
  inhibition at 20 g/ha: 75%
[1]; 408 h, Frigate 0.2 % by volume, Compound A 30 g/ha, 17 days after treatment, read-out: Growth Inhibition (%) of Johnsongrass 17 D.A.T.
  inhibition at 30 g/ha: 85%
[1]; 408 h, Frigate: No addition, Compound A 20 g/ha, 17 days after treatment, read-out: Growth Inhibition (%) of Johnsongrass 17 D.A.T.
  inhibition at 20 g/ha: 65%
[1]; 408 h, Frigate: No addition, Compound A 30 g/ha, 17 days after treatment, read-out: Growth Inhibition (%) of Johnsongrass 17 D.A.T.
  inhibition at 30 g/ha: 60%
[1]; 408 h, Frigate: No addition, Compound A 40 g/ha, 17 days after treatment, read-out: Growth Inhibition (%) of Johnsongrass 17 D.A.T.
  inhibition at 40 g/ha: 65%
[1]; 1344 h, Frigate 0.1 % by volume, 56 days after treatment, read-out: Growth Inhibition (%) of Johnsongrass 56 D.A.T.
  inhibition at 10 g/ha: 100%
[1]; 1344 h, Frigate 0.1 % by volume, Compound A 20 g/ha, 56 days after treatment, read-out: Growth Inhibition (%) of Johnsongrass 56 D.A.T.
  inhibition at 20 g/ha: 100%
[1]; 1344 h, Frigate 0.1 % by volume, Compound A 30 g/ha, 56 days after treatment, read-out: Growth Inhibition (%) of Johnsongrass 56 D.A.T.
  inhibition at 30 g/ha: 100%
[1]; 1344 h, Frigate 0.2 % by volume, 56 days after treatment, read-out: Growth Inhibition (%) of Johnsongrass 56 D.A.T.
  inhibition at 10 g/ha: 100%
[1]; 1344 h, Frigate 0.2 % by volume, Compound A 20 g/ha, 56 days after treatment, read-out: Growth Inhibition (%) of Johnsongrass 56 D.A.T.
  inhibition at 20 g/ha: 100%
[1]; 1344 h, Frigate 0.2 % by volume, Compound A 30 g/ha, 56 days after treatment, read-out: Growth Inhibition (%) of Johnsongrass 56 D.A.T.
  inhibition at 30 g/ha: 100%
[1]; 1344 h, Frigate: No addition, Compound A 20 g/ha, 56 days after treatment, read-out: Growth Inhibition (%) of Johnsongrass 56 D.A.T.
  inhibition at 20 g/ha: 90%
[1]; 1344 h, Frigate: No addition, Compound A 40 g/ha, 56 days after treatment, read-out: Growth Inhibition (%) of Johnsongrass 56 D.A.T.
  inhibition at 40 g/ha: 100%
Total evaluation [2]; 648 h, Frigate 0.1 % by volume, Compound A 30 g/ha, read-out: Growth Inhibition (%) TE
  inhibition at 30 g/ha: 75%
Total evaluation [2]; 648 h, Frigate 0.1 % by volume, read-out: Growth Inhibition (%) TE
  inhibition at 40 g/ha: 90%
Total evaluation [2]; 648 h, Frigate 0.2 % by volume, Compound A 20 g/ha, read-out: Growth Inhibition (%) TE
  inhibition at 20 g/ha: 65%
Total evaluation [2]; 648 h, Frigate 0.2 % by volume, Compound A 30 g/ha, read-out: Growth Inhibition (%) TE
  inhibition at 30 g/ha: 80%
Total evaluation [2]; 648 h, Frigate 0.2 % by volume, read-out: Growth Inhibition (%) TE
  inhibition at 40 g/ha: 85%
Total evaluation [2]; 648 h, Frigate: No addition, Compound A 30 g/ha, read-out: Growth Inhibition (%) TE
  inhibition at 30 g/ha: 50%
Total evaluation [2]; 648 h, Frigate: No addition, read-out: Growth Inhibition (%) TE
  inhibition at 40 g/ha: 70%
Total evaluation [2]; 648 h, Frigate: No addition, Compound A 50 g/ha, read-out: Growth Inhibition (%) TE
  inhibition at 50 g/ha: 75%
Total evaluation [2]; [5]
  Growth Inhibition (%) TE: 60%
[3]; Digitaria, 552 h, Compound A 10 g/ha, read-out: Growth Inhibition (%) of Crabgrass
  inhibition at 10 g/ha: 70%
[3]; Digitaria, 552 h, Compound A 20 g/ha, read-out: Growth Inhibition (%) of Crabgrass
  inhibition at 20 g/ha: 98%
[3]; Digitaria, 552 h, Compound A 40 g/ha, read-out: Growth Inhibition (%) of Crabgrass
  inhibition at 40 g/ha: 98%
[3]; Compound A 10 g/ha
  Growth Inhibition (%) of Crabgrass: 55%
[3]; Compound A 20 g/ha
  Growth Inhibition (%) of Crabgrass: 90%
Corn plants; Frigate 0.1 % by volume, Compound A 30 g/ha
  Injury on Corn: 1.0
Corn plants; Frigate 0.1 % by volume, Compound A 40 g/ha
  Injury on Corn: 1.0
Corn plants; [6]
  Injury on Corn: 1.0
Corn plants; [7]
  Injury on Corn: 1.0 and 1.5
Corn plants; Frigate 0.2 % by volume, Compound A 40 g/ha
  Injury on Corn: 1.5 and 2.0
Corn plants; [5]
  Injury on Corn: 1.0
Corn plants; Frigate: No addition, Compound A 40 g/ha
  Injury on Corn: 1.0 and 1.5
Corn plants; Frigate: No addition, Compound A 50 g/ha
  Injury on Corn: 1.0
Total evaluation [4]; [6]
  inhibition at 20 g/ha: 95%
Total evaluation [4]; [7]
  inhibition at 30 g/ha: 95%
Total evaluation [4]; Frigate 0.2 % by volume
  inhibition at 40 g/ha: 95%
  inhibition at 60 g/ha: 99%
Total evaluation [4]; Frigate: No addition
  inhibition at 40 g/ha: 70%
  inhibition at 60 g/ha: 70%
